In patent EP0923292B1, “IMPROVED METHOD FOR SYSTEMIC ADMINISTRATION OF 2,4-DIENOIC ACID-TYPE INSECTICIDES TO TERRESTRIAL MAMMALS” (priority 1996, dated 1998):

Tests used:
[1] = (S)-Methoprene concentration in fat of rat upon in vivo administration (radioassay/TLC); set-up: species or system Sprague-Dawley male rats
Procedure: Sprague-Dawley CD® VAF/PLUS® male rats were purchased from Charles River Breeding Laboratories, Inc., Portage, Michigan, USA. The body weights of the rats averaged 200 g at the time of dose administration. The rats were quarantined for five days before use, except for jugular vein-cannulated rats, to which doses were administered 1 to 3 days after receipt. The rats were divided into three groups for dosage with ^14C-(S)-methoprene: • Group A received a single dose of 10 mg/kg of the ovicide through intravenous injection via the jugular vein. Three rats each were sacrificed at 0.5 hour, 1 hour, 2 hours, 3 hours, 4 hours, 5 hours, 6 hours, and 7 hours after dosing. • Group B received a single dose 10 mg/kg of the ovicide through oral administration by gavage dosing. Three rats each were sacrificed at 1 hour, 2 hours, 3 hours, 4 hours, 5 hours, 6 hours, 7 hours, and 8 hours after dosing. • Group C received a single dose 100 mg/kg of the ovicide through oral administration by gavage dosing. Three rats each were sacrificed at 1 hour, 2 hours, 3 hours, 4 hours, 5 hours, 6 hours, 7 hours, and 8 hours after dosing. After dosing the rats were house individually in cages. Daily room temperature was maintained between 69°C and […] and the relative humidity was between 40% and 70%. All rats had free access to food and fresh tap water.
For analyses of the ovicide in fat, visceral fat was collected from the sacrificed rats. The fat sample from each rat was thoroughly mixed 1:1 with cellulose powder, and homogenized with a few drops of water. A portion (0.5 to 1 g) of each fat sample was extracted with 10 mL of a mixture of hexane/diethyl ether (1:1), which was treated vigorously on a sonicator for four minutes, then vortex mixed for two minutes and centrifuged. This procedure was repeated twice. The extracts were then combined, radioassayed, rotary evaporated, and concentrated under nitrogen for TLC analysis. A small amount of methanol was added to precipitate the fat to improve the TLC separation. Radioassays and TLC analyses were performed in the same manner as for the blood samples.

[2] = Concentration of (S)-methoprene on dog hair following oral administration (HPLC); format: in vivo, dogs; conditions: oral 50 mg/kg one time on Day 0; for concentration at 17 day / concentration at 21 day / concentration at 1 day / concentration at 3 day / concentration at 5 day / concentration at 7 day / concentration at 10 day / concentration at 14 day / concentration at 28 day: dog, hair, po, 50 mg/kg; for concentration at 1 day: day 1
Source text: Twelve random-bred adult dogs of various sex and medium hair coat were selected based on hair coat, health, and individual habits. The twelve dogs were grouped into two groups of six dogs each. Dog weights ranged from 22.5 kg to 35.0 kg, and the various weights and each sex were represented in each group. The dogs received a measured amount of Science Diet maintenance dog food daily and water was available. The two groups of dogs were housed separately. The dogs of Group 1 were not given any treatments, whereas those of Group 2 were each given 50 mg/kg of technical (S)-methoprene one time only at the start of the study (Day 0).
Blood samples were taken periodically by drawing the samples into 10 cc disposable syringes and transferring them to labeled 5 mL heparinized EDTA vacutainers treated with […] of paraoxon solution at a concentration of 1 x 10^-2 M. The blood samples were frozen until ready for analysis. Hair samples were clipped from the dogs on the same days that blood samples were taken, then placed in labeled freezer jars with aluminum foil seals, and frozen.
To analyze the dog hair, a known weight (4-8 g) of each dog hair sample was extracted in hexane, the extract evaporated and the residue reconstituted in 2 mL of hexane. One mL of the extract was cleaned by solid-phase extraction using a 3 cc/500 mg silica cartridge. The (S)-methoprene was then eluted from the cartridge with 5% ethyl acetate/hexane. The residue was reconstituted in 1 mL acetonitrile and analyzed by reversed-phase high-pressure liquid chromatography (HPLC) on a C18 column (250 x 4.6 mm, 10-micron diameter) using diode array detection at a wavelength of 264 nm, with a mobile phase of 90:10 methanol:water at 1.5 mUmin and an injection volume of […]. The (S)-methoprene peak eluted at about 5.1 minutes. The concentration of (S)-methoprene was calculated based on a calibration curve generated by concurrently running a series of standards. The limit of quantitation was about 20 ppb.

COC(C)(C)CCC[C@H](C)C/C=C/C(C)=C/C(=O)OC(C)C [(S)-Methoprene, 1-isopropyl (E,E)-11-methoxy-3,7,11-trimethyl dodecadi-2,4-enoate]
(S)-Methoprene Concentration in Fat ([1]; Group A 10 mg/kg I.V., 0.5 hours, average of three animals): 4.193 ± 1.566 ppm | (S)-Methoprene Concentration in Fat ([1]; Group A 10 mg/kg I.V., 1 hour, average of three animals): 6.936 ± 3.259 ppm | (S)-Methoprene Concentration in Fat ([1]; Group A 10 mg/kg I.V., 2 hours, average of three animals): 5.929 ± 1.197 ppm | (S)-Methoprene Concentration in Fat ([1]; Group A 10 mg/kg I.V., 3 hours, average of three animals): 5.233 ± 0.457 ppm | (S)-Methoprene Concentration in Fat ([1]; Group A 10 mg/kg I.V., 4 hours, average of three animals): 8.179 ± 3.532 ppm | (S)-Methoprene Concentration in Fat ([1]; Group A 10 mg/kg I.V., 5 hours, average of three animals): 7.596 ± 3.990 ppm | (S)-Methoprene Concentration in Fat ([1]; Group A 10 mg/kg I.V., 6 hours, average of three animals): 6.734 ± 2.209 ppm | (S)-Methoprene Concentration in Fat ([1]; Group A 10 mg/kg I.V., 7 hours, average of three animals): 8.077 ± 1.082 ppm | (S)-Methoprene Concentration in Fat ([1]; Group B 10 mg/kg oral, 1 hour, average of three animals): 0.272 ± 0.103 ppm | (S)-Methoprene Concentration in Fat ([1]; Group B 10 mg/kg oral, 2 hours, average of three animals): 1.138 ± 0.388 ppm | (S)-Methoprene Concentration in Fat ([1]; Group B 10 mg/kg oral, 3 hours, average of three animals): 1.715 ± 0.680 ppm | (S)-Methoprene Concentration in Fat ([1]; Group B 10 mg/kg oral, 4 hours, average of three animals): 2.327 ± 1.090 ppm | (S)-Methoprene Concentration in Fat ([1]; Group B 10 mg/kg oral, 5 hours, average of three animals): 2.980 ± 0.657 ppm | (S)-Methoprene Concentration in Fat ([1]; Group B 10 mg/kg oral, 6 hours, average of three animals): 3.369 ± 0.814 ppm | (S)-Methoprene Concentration in Fat ([1]; Group B 10 mg/kg oral, 7 hours, average of three animals): 2.921 ± 1.345 ppm | (S)-Methoprene Concentration in Fat ([1]; Group B 10 mg/kg oral, 8 hours, average of three animals): 2.408 ± 0.702 ppm | (S)-Methoprene Concentration in Fat ([1]; Group C 100 mg/kg oral, 1 hour, average of two animals): 1.060 ± 0.270 ppm | (S)-Methoprene Concentration in Fat ([1]; Group C 100 mg/kg oral, 2 hours, average of three animals): 14.726 ± 3.371 ppm | (S)-Methoprene Concentration in Fat ([1]; Group C 100 mg/kg oral, 3 hours, average of three animals): 22.868 ± 3.322 ppm | (S)-Methoprene Concentration in Fat ([1]; Group C 100 mg/kg oral, 4 hours, average of three animals): 45.316 ± 16.910 ppm | (S)-Methoprene Concentration in Fat ([1]; Group C 100 mg/kg oral, 5 hours, average of three animals): 38.420 ± 2.765 ppm | (S)-Methoprene Concentration in Fat ([1]; Group C 100 mg/kg oral, 6 hours, average of three animals): 41.898 ± 11.568 ppm | (S)-Methoprene Concentration in Fat ([1]; Group C 100 mg/kg oral, 7 hours, average of three animals): 39.393 ± 17.952 ppm | (S)-Methoprene Concentration in Fat ([1]; Group C 100 mg/kg oral, 8 hours, average of three animals): 47.162 ± 20.116 ppm | Concentration of (S)-Methoprene on Dog Hair ([2]; Dog #60, day 3): 33,900 ppb | Concentration of (S)-Methoprene on Dog Hair ([2]; Dog #60, day 5): 12,500 ppb | Concentration of (S)-Methoprene on Dog Hair ([2]; Dog #60, day 7): 2,400 ppb | Concentration of (S)-Methoprene on Dog Hair ([2]; Dog #60, day 10): 12,300 ppb | Concentration of (S)-Methoprene on Dog Hair ([2]; Dog #60, day 14): 5,300 ppb | Concentration of (S)-Methoprene on Dog Hair ([2]; Dog #60, day 17): 3,600 ppb | Concentration of (S)-Methoprene on Dog Hair ([2]; Dog #60, day 21): 12,100 ppb | Concentration of (S)-Methoprene on Dog Hair ([2]; Dog #60, day 28): 5,200 ppb | concentration at 17 day ([2]; Dog #98, day 17): 345 ng/g | concentration at 17 day ([2]; Dog #528, day 17): 137 ng/g | concentration at 21 day ([2]; Dog #528, day 21): 31.2 ng/g | concentration at 17 day ([2]; Dog #529, day 17): 39.7 ng/g | concentration at 21 day ([2]; Dog #529, day 21): 93.5 ng/g | concentration at 17 day ([2]; Dog #532, day 17): 331 ng/g | concentration at 17 day ([2]; Dog #535, day 17): 1090 ng/g | concentration at 1 day ([2]; random-bred, Dog #60): 6000 ng/g | concentration at 1 day ([2]; random-bred, Dog #98): 47.4 ng/g | concentration at 3 day ([2]; random-bred, Dog #98, day 3): 125 ng/g | concentration at 5 day ([2]; random-bred, Dog #98, day 5): 161 ng/g | concentration at 7 day ([2]; random-bred, Dog #98, day 7): 126 ng/g | concentration at 10 day ([2]; random-bred, Dog #98, day 10): 167 ng/g | concentration at 14 day ([2]; random-bred, Dog #98, day 14): 200 ng/g | concentration at 21 day ([2]; random-bred, Dog #98, day 21): 231 ng/g | concentration at 28 day ([2]; random-bred, Dog #98, day 28): 287 ng/g | concentration at 1 day ([2]; random-bred, Dog #528): 76.6 ng/g | concentration at 3 day ([2]; random-bred, Dog #528, day 3): 199 ng/g | concentration at 5 day ([2]; random-bred, Dog #528, day 5): 114 ng/g | concentration at 7 day ([2]; random-bred, Dog #528, day 7): 150 ng/g | concentration at 10 day ([2]; random-bred, Dog #528, day 10): 126 ng/g | concentration at 14 day ([2]; random-bred, Dog #528, day 14): 103 ng/g | concentration at 28 day ([2]; random-bred, Dog #528, day 28): 47.2 ng/g | concentration at 1 day ([2]; random-bred, Dog #529): 86.6 ng/g | concentration at 3 day ([2]; random-bred, Dog #529, day 3): 82.2 ng/g | concentration at 5 day ([2]; random-bred, Dog #529, day 5): 58.3 ng/g | concentration at 7 day ([2]; random-bred, Dog #529, day 7): 34.5 ng/g | concentration at 10 day ([2]; random-bred, Dog #529, day 10): 60.5 ng/g | concentration at 14 day ([2]; random-bred, Dog #529, day 14): 85.5 ng/g | concentration at 28 day ([2]; random-bred, Dog #529, day 28): 106 ng/g | concentration at 3 day ([2]; random-bred, Dog #532, day 3): 62.4 ng/g | concentration at 5 day ([2]; random-bred, Dog #532, day 5): 98.6 ng/g | concentration at 7 day ([2]; random-bred, Dog #532, day 7): 117 ng/g | concentration at 10 day ([2]; random-bred, Dog #532, day 10): 255 ng/g | concentration at 14 day ([2]; random-bred, Dog #532, day 14): 350 ng/g | concentration at 21 day ([2]; random-bred, Dog #532, day 21): 342 ng/g | concentration at 28 day ([2]; random-bred, Dog #532, day 28): 230 ng/g | concentration at 1 day ([2]; random-bred, Dog #535): 49.3 ng/g | concentration at 3 day ([2]; random-bred, Dog #535, day 3): 424 ng/g | concentration at 5 day ([2]; random-bred, Dog #535, day 5): 276 ng/g | concentration at 7 day ([2]; random-bred, Dog #535, day 7): 294 ng/g | concentration at 10 day ([2]; random-bred, Dog #535, day 10): 681 ng/g | concentration at 14 day ([2]; random-bred, Dog #535, day 14): 800 ng/g | concentration at 21 day ([2]; random-bred, Dog #535, day 21): 675 ng/g | concentration at 28 day ([2]; random-bred, Dog #535, day 28): 461 ng/g
